Reference: article PMC7269481, “ZN148 Is a Modular Synthetic Metallo-β-Lactamase Inhibitor That Reverses Carbapenem Resistance in Gram-Negative Pathogens In Vivo” (Antimicrobial Agents and Chemotherapy, 2020)
Converted amounts (≈) assume the structure as drawn.

Legend:
[1] = Solubility measurement in PBS; assay type: physicochemical
Method: The solubility of ZN148 was evaluated in PBS buffer at pH 7.4. Increasing amounts of ZN148 was dissolved in 1.0 ml at room temperature by gentle swirling of the solution in a glass vial. A total of 1.225 g of ZN148 was successfully dissolved in 1.0 ml of PBS buffer, giving a total volume of 1.8 ml. This solution was stable at 4°C for more than 6 weeks without precipitation.

[2] = test system: NDM-1-producing K. pneumoniae K66-45; test: Serial passage on increasing meropenem; assay type: cell-based; settings: for fold increase in meropenem MIC after serial passaging: compared to control culture / original MIC
Method: K. pneumoniae K66-45 was passaged in a 96-well microtiter plate with a consistent concentration of ZN148 and increasing concentrations of meropenem. To start the passaging, cation-adjusted Mueller-Hinton broth II medium (Sigma-Aldrich) containing 0.0625 mg/liter (0.5× MIC) and 50 or 100 μM ZN148 was inoculated with 1% of overnight culture, which was grown without selection. Six biological replicates were passaged in parallel, and from each of the six overnight cultures four wells were inoculated, resulting in 24 subcultures for each ZN148 concentration. After 24 h of incubation at 37°C and shaking at 180 rpm, the wells were visually checked for growth.

VIM-2 = molecular target: T1, VIM-2 (Escherichia coli, UniProt Q5U7L7); test: LC-ESI-MS of VIM-2 incubated with inhibitor; settings: VIM-2 preincubated with 5 mM ZN148
T1 construct: made in house
Method: VIM-2 (8 μM final concentration) was incubated together without or with 5 mM ZN148 on ice for 30 min. Incubation was carried out in Chelex HEPES buffer (pH 7.5), and the inhibitors were diluted in Milli-Q water (Millipore/Merck) by a factor of 1,000,000 using centrifugal filters (10,000 Da; Merck). Liquid chromatography electrospray ionization Q-TOF mass spectrometry (LC-ESI-MS; Agilent Technologies, Santa Clara, CA) was performed in positive-ion mode using 0.1% formic acid in Milli-Q water and acetonitrile (VWR, Radnor, PA) at 0.4 ml/min. Spectra deconvolution was performed by using BioConfirm and MassHunter qualitative analysis (Agilent Technologies).

[3] = test system: strains harboring only the class A carbapenemase KPC; test: Carbapenem potentiation, strains with only KPC; assay type: cell-based; settings: 50 μM ZN148
[4] = test system: K. pneumoniae with VIM (n=17); test: Meropenem MIC distribution, K. pneumoniae with VIM; assay type: cell-based; settings: MEM alone or +50 µM ZN148
Method: MICs of carbapenems alone and in combination with inhibitors were determined by broth microdilution according to the Clinical and Laboratory Standards Institute (CLSI) guidelines ([48]) using either premade plates (TREK Diagnostic Systems/Thermo Fisher Scientific, East Grinstead, United Kingdom) with meropenem or in-house-prepared plates with meropenem, imipenem, and doripenem. ZN148 and other inhibitors were tested at a fixed concentration of 50 μM. Cation-adjusted Mueller-Hinton medium (TREK Diagnostic Systems/Thermo Fisher Scientific; Becton Dickinson, Franklin Lakes, NJ) were used as growth medium. The plates were incubated for 20 h at 37°C. ZN148, ZN222, ZN223, ZN228, and TPA were initially tested in combination with meropenem using two indicator strains: NDM-1-producing K. pneumoniae ([49], [50]) and VIM-2-producing P. aeruginosa ([51]). The activity of ZN148 were subsequently tested against two extended strain collections: (i) in combination with meropenem against MBL-producing Enterobacterales (n = 62), MBL-producing P. aeruginosa (n = 9) and MBL- and class D carbapenemase-coproducing Enterobacterales (n = 5) from the strain collection at the Norwegian National Advisory Unit on Detection of Antimicrobial Resistance and (ii) in combination with meropenem, imipenem, and doripenem against globally collected MBL-producing E. coli (n = 87), K. pneumoniae (n = 85), P. aeruginosa (n = 52), and A. baumannii (n = 6), MBL- and class A/D carbapenemase-coproducing E. coli (n = 11), K. pneumoniae (n = 15) and A. baumannii (n = 7) at IHMA Europe, Sàrl, Switzerland. E. coli ATCC 25922 and P. aeruginosa ATCC 27853 were used as quality control strains. The MBL inhibitors were also tested for intrinsic antibacterial activity against the strains.

For `CN(C[C@H](O)[C@@H](O)[C@H](O)[C@H](O)CO)C(=O)c1ccc(CN(Cc2ccccn2)Cc2ccccn2)nc1` [ZN148], the solubility ([1]; PBS buffer, pH 7.4, aqueous buffer, thermodynamic from solid, in phosphate-buffered saline [PBS]) was 1220 mg/mL (≈ 2390 mM), the “stability of the solution without precipitation” value ([1]; at 4°C, 1.225 g in 1.0 ml PBS) was “more than 6 weeks” and the “amount dissolved in 1.0 ml of PBS buffer” value ([1]; pH 7.4, room temperature, total volume 1.8 ml) was 1.225 g. The “maximum meropenem MIC reached by evolved cultures” value ([2]; 50 µM ZN148, 8 passages) was 8 µg/mL, the “maximum meropenem MIC reached by evolved cultures” value ([2]; 100 µM ZN148, 6 passages) was 2 µg/mL and the “fold increase in meropenem MIC after serial passaging” value ([2]; in the presence of 50 μM ZN148) was 64 fold. The “fold increase in meropenem MIC after serial passaging” value ([2]; in the presence of 100 μM ZN148) was 16 fold, the “change in mass of VIM-2” value (VIM-2) was 46.2 ± 0.1 Da and the “potentiation of meropenem, doripenem, or imipenem” value [3] was “no potentiation”.

For `C[C@@H](O)[C@H]1C(=O)N2C(C(=O)O)=C(S[C@@H]3CN[C@H](C(=O)N(C)C)C3)[C@H](C)[C@H]12` [meropenem], the “No. of strains with indicated MIC” value ([4]; MIC 2 mg/L) was 2, the “No. of strains with indicated MIC” value ([4]; MIC 4 mg/L) was 2 and the “No. of strains with indicated MIC” value ([4]; MIC 8 mg/L) was 1. For the same compound, the “No. of strains with indicated MIC” value ([4]; MIC 16 mg/L) was 4, the “No. of strains with indicated MIC” value ([4]; MIC 32 mg/L) was 3 and the “No. of strains with indicated MIC” value ([4]; MIC ≥64 mg/L) was 5.
